≈ marks a conversion by molar mass, not a printed value.
Tests used:
Cryptococcus neoformans = assay: Antifungal activity against Cryptococcus neoformans after 72 hrs by microbroth dilution technique; assay type: functional
Sporothrix schenckii = assay: Antifungal activity against Sporothrix schenckii after 72 hrs by microbroth dilution technique; assay type: functional
[1] = test system: Trichophyton mentagrophytes; assay: Antifungal activity against Trichophyton mentagrophytes after 96 hrs by microbroth dilution technique; assay type: functional
Candida albicans = assay: Antifungal activity against Candida albicans after 48 hrs by microbroth dilution technique; assay type: functional
Candida parapsilosis = assay: Antifungal activity against Candida parapsilosis after 48 hrs by microbroth dilution technique; assay type: functional
Aspergillus fumigatus = assay: Antifungal activity against Aspergillus fumigatus after 72 hrs by microbroth dilution technique; assay type: functional
L929 [2] = assay: Cytotoxicity against mouse L929 cells up to 3.12 ug/ml after 24 hrs using Giemsa staining by phase contrast microscopy; assay type: cell-based; conditions: l929, 24 h
L929 [3] = assay: Cytotoxicity against mouse L929 cells at >3.12 ug/ml after 24 hrs using Giemsa staining by phase contrast microscopy; assay type: cell-based; conditions: l929, 24 h
[4] = Cryptococcus neoformans, 72 h, read-out: MIC
[5] = Sporothrix schenckii, 72 h, read-out: MIC
[6] = Trichophyton mentagrophytes, 96 h, read-out: MIC
[7] = Candida albicans, 48 h, read-out: MIC
[8] = Lodderomyces parapsilosis, 48 h, read-out: MIC
[9] = Aspergillus fumigatus, 72 h, read-out: MIC

| SMILES | MIC (Cryptococcus neoformans; [4]) [µg/mL] | MIC (Sporothrix schenckii; [5]) [µg/mL] | MIC [1, 6] [µg/mL] | MIC (Candida albicans; [7]) [µg/mL] | MIC (Candida parapsilosis; [8]) [µg/mL] | MIC (Aspergillus fumigatus; [9]) [µg/mL] | MIC (Sporothrix schenckii) [µg/mL] | MIC (Candida albicans) [µg/mL] | MIC [1] [µg/mL] | Activity (L929 [2]) | Activity (L929 [3]) | MIC (Candida parapsilosis) [µg/mL] | MIC (Aspergillus fumigatus) [µg/mL] | MIC (Cryptococcus neoformans) [µg/mL] |
| --- | --- | --- | --- | --- | --- | --- | --- | --- | --- | --- | --- | --- | --- | --- |
| CCCCCCc1cn(C[C@@](O)(Cn2cncn2)c2ccc(F)cc2F)nn1 | 50 (≈ 128 µM) | 0.78 (≈ 2 µM) | 6.25 (≈ 16 µM) | 0.0225 (≈ 0.0576 µM) | 0.19 (≈ 0.487 µM) | 50 (≈ 128 µM) |  |  |  |  |  |  |  |  |
| CCCCCCc1cn(C[C@](O)(Cn2cncn2)c2ccc(F)cc2F)nn1 | 50 (≈ 128 µM) | 50 (≈ 128 µM) | 50 (≈ 128 µM) | 50 (≈ 128 µM) | > 50 | > 50 |  |  |  |  |  |  |  |  |
| CCCCCCCCn1nncc1CC(O)(Cn1cncn1)c1ccc(F)cc1F (racemic) | 50 (≈ 119 µM) | 6.25 (≈ 14.9 µM) | 50 (≈ 119 µM) | 0.39 (≈ 0.932 µM) | 50 (≈ 119 µM) | > 50 |  |  |  |  |  |  |  |  |
| CCCCCCc1cnnn1CC(O)(Cn1cncn1)c1ccc(F)cc1F (racemic) | 50 (≈ 128 µM) |  | 50 (≈ 128 µM) |  | > 50 | 25 (≈ 64 µM) | 3.12 (≈ 7.99 µM) | 0.078 (≈ 0.2 µM) |  |  |  |  |  |  |
| CCCCCCCCn1cc(CC(O)(Cn2cncn2)c2ccc(F)cc2F)nn1 (racemic) | 25 (≈ 59.7 µM) |  |  |  |  |  | 0.045 (≈ 0.108 µM) | 0.007 (≈ 0.0167 µM) | 0.39 (≈ 0.932 µM) | Non-toxic | Toxic | 0.0112 (≈ 0.0268 µM) | 3.12 (≈ 7.46 µM) |  |
| CCCCCCc1cn(CC(O)(Cn2cncn2)c2ccc(F)cc2F)nn1 (racemic) | 25 (≈ 64 µM) | 0.78 (≈ 2 µM) | 12.5 (≈ 32 µM) | 0.09 (≈ 0.231 µM) | 0.39 (≈ 0.999 µM) | 25 (≈ 64 µM) |  |  |  |  |  |  |  |  |
| CCCCCCCCn1cc(CC(O)(Cn2cncn2)c2ccc(F)cc2F)nn1 (stereo in doubt; 2A) |  |  |  |  |  |  | 0.0225 (≈ 0.0538 µM) | 0.0011 (≈ 0.00263 µM) | 0.19 (≈ 0.454 µM) |  |  | 0.0011 (≈ 0.00263 µM) |  |  |
| CCCCCCCCn1cc(CC(O)(Cn2cncn2)c2ccc(F)cc2F)nn1 (stereo in doubt; 2B) |  |  |  |  |  |  | 12.5 (≈ 29.9 µM) | 12.5 (≈ 29.9 µM) | 25 (≈ 59.7 µM) |  |  | 50 (≈ 119 µM) | 50 (≈ 119 µM) | 25 (≈ 59.7 µM) |
| CCCCCCc1cnnn1CC(O)(Cn1cncn1)c1ccc(F)cc1F (stereo in doubt; 9A) |  |  |  |  |  |  | 1.56 (≈ 4 µM) | 0.039 (≈ 0.0999 µM) |  |  |  | 50 (≈ 128 µM) | >50 | 50 (≈ 128 µM) |
| CCCCCCc1cnnn1CC(O)(Cn1cncn1)c1ccc(F)cc1F (stereo in doubt; 9B) |  |  |  |  |  |  | >50 | >50 | 50 (≈ 128 µM) |  |  |  |  | >50 |
| C[C@@H]1[C@H](O)[C@@H](C)/C=C/C=C/C=C/C=C/C=C/C=C/C=C/[C@H](O[C@@H]2O[C@H](C)[C@@H](O)[C@H](N)[C@@H]2O)C[C@@H]2O[C@](O)(C[C@@H](O)C[C@@H](O)[C@H](O)CC[C@@H](O)C[C@@H](O)CC(=O)O[C@H]1C)C[C@H](O)[C@H]2C(=O)O [AMPHOTERICIN B] | 0.06 (≈ 0.0649 µM) | 0.12 (≈ 0.13 µM) | 0.12 (≈ 0.13 µM) | 0.12 (≈ 0.13 µM) | 0.12 (≈ 0.13 µM) | 0.5 (≈ 0.541 µM) |  |  |  |  |  |  |  |  |
| OC(Cn1cncn1)(Cn1cncn1)c1ccc(F)cc1F [FLUCONAZOLE] | 1 (≈ 3.27 µM) | 2 (≈ 6.53 µM) | 1 (≈ 3.27 µM) | 0.5 (≈ 1.63 µM) | 1 (≈ 3.27 µM) | 2 (≈ 6.53 µM) |  |  |  |  |  |  |  |  |

Reference: ChEMBL document CHEMBL3217659, “Synthesis and antifungal activity of 1,5-disubstituted-1,2,3-triazole containing fluconazole analogues” (Medchemcomm, 2012)
